pIC50: −log10 of the molar value. One block for each compound: values may come before it.
Tests used:
Cricetinae gen. sp. [1] = test: The compound was evaluated for its ability to inhibit the human neutrophil elastase-induced lung hemorrhage in hamster by intravenous bolus administration of 100 mg/Kg dose; type: functional, Cricetulus griseus
Cricetinae gen. sp. [2] = test: The compound was evaluated for its ability to inhibit the human neutrophil elastase-induced lung hemorrhage in hamster by intravenous bolus administration of 30 mg/Kg dose; type: functional, Cricetulus griseus
Neutrophil elastase = target: T1, Neutrophil elastase (Homo sapiens, UniProt P08246); test: In vitro inhibition of the human neutrophil elastase-catalyzed hydrolysis of the synthetic substrate Suc-Ala-Pro-Ala-MCA
T1 sequence (P08246 whole entry): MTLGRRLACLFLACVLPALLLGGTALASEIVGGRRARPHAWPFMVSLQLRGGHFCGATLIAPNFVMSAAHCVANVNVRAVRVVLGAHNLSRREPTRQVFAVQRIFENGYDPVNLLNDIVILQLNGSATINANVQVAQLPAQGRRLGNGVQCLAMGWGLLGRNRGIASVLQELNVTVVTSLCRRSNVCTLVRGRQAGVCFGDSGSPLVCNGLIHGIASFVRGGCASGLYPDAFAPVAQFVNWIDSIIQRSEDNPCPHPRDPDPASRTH

Cricetinae gen. sp. [3] = test: The compound was evaluated for its ability to inhibit the HNE-induced lung hemorrhage in hamster by intravenous bolus administration of 10 mg/Kg dose; type: functional, Cricetulus griseus
Cricetinae gen. sp. [4] = test: The compound was evaluated for its ability to inhibit the human neutrophil elastase-induced lung hemorrhage in hamster by intravenous bolus administration of 10 mg/Kg dose; type: functional, Cricetulus griseus
Cricetinae gen. sp. [5] = test: The compound was evaluated for its ability to inhibit the human neutrophil elastase-induced lung hemorrhage in hamster by intravenous bolus administration of 30 mg/kg dose; type: functional, Cricetulus griseus
Cricetinae gen. sp. [6] = test: The compound was evaluated for its ability to inhibit the human neutrophil elastase-induced lung hemorrhage in hamster by intravenous bolus administration of 10 mg/kg dose; type: functional, Cricetulus griseus

Structure (SMILES): CC(C)[C@H](NC(=O)[C@@H]1CCCN1C(=O)[C@H](NC(=O)COc1ccc(OCC(=O)O)cc1)C(C)C)C(=O)c1nc2ccccc2o1
inhibition in vivo at 100 mg/kg (Cricetinae gen. sp. [1]): 98%
inhibition in vivo at 30 mg/kg (Cricetinae gen. sp. [2]): 56%

Structure (SMILES): CC(C)[C@H](NC(=O)COc1ccc(OCC(=O)O)cc1)C(=O)c1nc2c(OC(=O)C(C)(C)C)cccc2o1
inhibition in vivo at 100 mg/kg (Cricetinae gen. sp. [1]): 74%
inhibition in vivo at 30 mg/kg (Cricetinae gen. sp. [2]): 13%
pIC50 (Neutrophil elastase): 6.89

Structure (SMILES): CCCCCOc1cccc2oc(C(=O)[C@@H](NC(=O)OCc3ccccc3)C(C)C)nc12
pIC50 (Neutrophil elastase): < 5.00

Structure (SMILES): CC(C)[C@H](NC(=O)[C@@H]1CCCN1C(=O)[C@@H](NC(=O)COc1ccc(SCC(C)(C)C(=O)O)cc1)C(C)C)C(=O)c1nc2ccccc2o1
inhibition in vivo at 100 mg/kg (Cricetinae gen. sp. [1]): 99%
inhibition in vivo at 10 mg/kg (Cricetinae gen. sp. [4]): 30%
inhibition in vivo at 30 mg/kg (Cricetinae gen. sp. [5]): 86%
pIC50 (Neutrophil elastase): 8.46

Structure (SMILES): CC(C)[C@H](NC(=O)OCc1ccccc1)C(=O)c1nc2c(OCC(N)=O)cccc2o1
pIC50 (Neutrophil elastase): < 5.00

Structure (SMILES): CC(C)[C@H](NC(=O)[C@H]1CCCN1C(=O)COc1ccc(OCC(=O)O)cc1)C(=O)c1nc2c(OC(=O)C(C)(C)C)cccc2o1
inhibition in vivo at 100 mg/kg (Cricetinae gen. sp. [1]): 96%
inhibition in vivo at 30 mg/kg (Cricetinae gen. sp. [2]): 66%
pIC50 (Neutrophil elastase): 6.64

Structure (SMILES): COC(=O)COc1cccc2oc(C(=O)[C@@H](NC(=O)OCc3ccccc3)C(C)C)nc12
pIC50 (Neutrophil elastase): < 5.00

Structure (SMILES): CC(C)[C@H](NC(=O)[C@@H]1CCCN1C(=O)[C@@H](NC(=O)COc1ccccc1OCC(=O)O)C(C)C)C(=O)c1nc2ccccc2o1
inhibition in vivo at 100 mg/kg (Cricetinae gen. sp. [1]): 90%
inhibition in vivo at 10 mg/kg (Cricetinae gen. sp. [4]): 37%
inhibition in vivo at 30 mg/kg (Cricetinae gen. sp. [2]): 48%
pIC50 (Neutrophil elastase): 8.14

Structure (SMILES): CC(C)[C@H](NC(=O)OCc1ccccc1)C(=O)c1nc2c(OCc3cccc(C(F)(F)F)c3)cccc2o1
pIC50 (Neutrophil elastase): < 5.00

Structure (SMILES): CC(C)[C@H](NC(=O)OCc1ccccc1)C(=O)c1nc2c(OCC(=O)O)cccc2o1
pIC50 (Neutrophil elastase): < 5.00

Structure (SMILES): CC(C)[C@H](NC(=O)[C@@H]1CCCN1C(=O)[C@@H](NC(=O)COc1ccc(OCC(=O)O)cc1)C(C)C)C(=O)c1nc2c(OC(=O)C(C)(C)C)cccc2o1
inhibition in vivo at 100 mg/kg (Cricetinae gen. sp. [1]): 99%
inhibition in vivo at 30 mg/kg (Cricetinae gen. sp. [2]): 73%
pIC50 (Neutrophil elastase): 8.05

Structure (SMILES): CCOc1cccc2oc(C(=O)[C@@H](NC(=O)OCc3ccccc3)C(C)C)nc12
pIC50 (Neutrophil elastase): < 5.00

Further lines, with some results ahead:

pIC50 (Neutrophil elastase): < 5.00
Structure (SMILES): CCCCC(Oc1cccc2oc(C(=O)[C@@H](NC(=O)OCc3ccccc3)C(C)C)nc12)c1ccccc1 (stereo not given in full)

pIC50 (Neutrophil elastase): < 5.00
Structure (SMILES): CC(C)[C@H](NC(=O)OCc1ccccc1)C(=O)c1nc2ccccc2o1

pIC50 (Neutrophil elastase): 7.89
Structure (SMILES): CC(C)[C@H](NC(=O)[C@@H]1CCCN1C(=O)[C@@H](NC(=O)COC(=O)c1ccc(OCC(=O)O)cc1)C(C)C)C(=O)c1nc2ccccc2o1
inhibition in vivo at 10 mg/kg (Cricetinae gen. sp. [3]): 12%
inhibition in vivo at 30 mg/kg (Cricetinae gen. sp. [2]): 75%

pIC50 (Neutrophil elastase): 7.14
Structure (SMILES): CC(C)[C@H](NC(=O)[C@@H]1CCCN1C(=O)[C@@H](NC(=O)/C=C/C(=O)O)C(C)C)C(=O)c1nc2ccccc2o1

pIC50 (Neutrophil elastase): 6.54
Structure (SMILES): CC(C)CCOc1cccc2oc(C(=O)[C@@H](NC(=O)[C@H]3CCCN3C(=O)COc3ccc(OCC(=O)O)cc3)C(C)C)nc12
inhibition in vivo at 100 mg/kg (Cricetinae gen. sp. [1]): 99%
inhibition in vivo at 30 mg/kg (Cricetinae gen. sp. [2]): -16%

pIC50 (Neutrophil elastase): < 5.00
Structure (SMILES): CC(C)[C@H](NC(=O)OCc1ccccc1)C(=O)c1nc2c(OCc3ccccc3)cccc2o1

pIC50 (Neutrophil elastase): 7.48
Structure (SMILES): CC(C)[C@H](NC(=O)[C@@H]1CCCN1C(=O)[C@@H](NC(=O)CNC(=O)c1ccc(OCC(=O)O)cc1)C(C)C)C(=O)c1nc2ccccc2o1
inhibition in vivo at 10 mg/kg (Cricetinae gen. sp. [6]): 46%
inhibition in vivo at 30 mg/kg (Cricetinae gen. sp. [5]): 99%

pIC50 (Neutrophil elastase): < 5.00
Structure (SMILES): CC(C)[C@H](NC(=O)OCc1ccccc1)C(=O)c1nc2c(O)cccc2o1

pIC50 (Neutrophil elastase): 5.11
Structure (SMILES): CC(C)CCOc1cccc2oc(C(=O)[C@@H](NC(=O)OCc3ccccc3)C(C)C)nc12

pIC50 (Neutrophil elastase): 6.55
Structure (SMILES): CC(C)[C@H](NC(=O)[C@@H]1CCCN1C(=O)[C@@H](NC(=O)N[C@H](C)C(=O)O)C(C)C)C(=O)c1nc2ccccc2o1
inhibition in vivo at 30 mg/kg (Cricetinae gen. sp. [2]): 39%

pIC50 (Neutrophil elastase): < 5.00
Structure (SMILES): CC(C)=CCOc1cccc2oc(C(=O)[C@@H](NC(=O)OCc3ccccc3)C(C)C)nc12

pIC50 (Neutrophil elastase): 8.13
Structure (SMILES): CC(C)[C@H](NC(=O)[C@@H]1CCCN1C(=O)[C@@H](NC(=O)c1ccc(OCC(=O)O)cc1)C(C)C)C(=O)c1nc2ccccc2o1
inhibition in vivo at 10 mg/kg (Cricetinae gen. sp. [4]): 15%
inhibition in vivo at 30 mg/kg (Cricetinae gen. sp. [2]): 60%

pIC50 (Neutrophil elastase): 6.35
Structure (SMILES): CC(C)[C@H](NC(=O)OCc1ccccc1)C(=O)c1nc2c(OC(=O)C(C)(C)C)cccc2o1

pIC50 (Neutrophil elastase): 7.18
Structure (SMILES): CC(C)[C@H](NC(=O)[C@@H]1CCCN1C(=O)[C@@H](NC(=O)CCC(=O)O)C(C)C)C(=O)c1nc2ccccc2o1
inhibition in vivo at 30 mg/kg (Cricetinae gen. sp. [2]): 61%

pIC50 (Neutrophil elastase): < 5.00
Structure (SMILES): CC(C)[C@H](NC(=O)OCc1ccccc1)C(=O)c1nc2c(OCCN(C)C)cccc2o1

Source: ChEMBL document CHEMBL1135060, “Design and synthesis of peptide-based carboxylic acid-containing transition-state inhibitors of human neutrophil elastase” (Bioorg Med Chem Lett, 2002)
